Data published in paper PMC6423783, “Flavokawain B targets protein neddylation for enhancing the anti-prostate cancer effect of Bortezomib via Skp2 degradation” (Cell Communication and Signaling : CCS, 2019).

Molecular target: T1, NAE1 regulatory subunit APP-BP1 (NEDD8 activating enzyme, NAE) (Homo sapiens, UniProt Q13564)
T1 construct: APP-BP1/UBA3 (NEDD8 ligase E1); with UBA3
T1 sequence (Q13564 2-534): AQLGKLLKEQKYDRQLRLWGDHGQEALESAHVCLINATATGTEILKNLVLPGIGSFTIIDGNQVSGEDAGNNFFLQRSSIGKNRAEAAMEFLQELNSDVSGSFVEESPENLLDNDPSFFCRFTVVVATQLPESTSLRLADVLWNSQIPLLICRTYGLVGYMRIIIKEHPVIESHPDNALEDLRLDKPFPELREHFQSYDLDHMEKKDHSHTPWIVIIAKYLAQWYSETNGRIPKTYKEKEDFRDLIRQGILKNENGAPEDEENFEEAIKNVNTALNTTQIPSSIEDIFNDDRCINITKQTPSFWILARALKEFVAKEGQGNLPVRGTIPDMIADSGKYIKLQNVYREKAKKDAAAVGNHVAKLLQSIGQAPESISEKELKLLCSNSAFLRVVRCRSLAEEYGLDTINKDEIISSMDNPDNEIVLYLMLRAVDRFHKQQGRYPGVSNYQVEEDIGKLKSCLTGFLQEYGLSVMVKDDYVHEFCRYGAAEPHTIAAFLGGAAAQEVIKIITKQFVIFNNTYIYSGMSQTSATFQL
T1 sequence (Q8TBC4 2-463 partner): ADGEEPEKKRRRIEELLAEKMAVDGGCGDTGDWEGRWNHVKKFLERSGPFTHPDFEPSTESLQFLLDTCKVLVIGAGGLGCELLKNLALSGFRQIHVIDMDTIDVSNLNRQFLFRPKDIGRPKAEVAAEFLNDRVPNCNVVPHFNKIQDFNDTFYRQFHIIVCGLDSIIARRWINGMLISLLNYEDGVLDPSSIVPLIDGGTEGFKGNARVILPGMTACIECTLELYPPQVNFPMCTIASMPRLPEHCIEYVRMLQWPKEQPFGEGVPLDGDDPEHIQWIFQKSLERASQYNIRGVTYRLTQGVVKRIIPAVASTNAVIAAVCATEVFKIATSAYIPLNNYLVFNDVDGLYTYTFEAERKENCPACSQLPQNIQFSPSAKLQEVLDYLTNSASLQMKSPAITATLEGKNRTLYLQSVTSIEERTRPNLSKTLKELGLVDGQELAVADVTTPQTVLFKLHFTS
Test: in vitro NEDD8 initiation conjugation assay (APP-BP1/UBA3, UbcH12, NEDD8; Western readout), supported by CETSA of APP-BP1 in PC3 cells
Type: biochemical
Protocol: in vitro NEDD8 initiation conjugation assay (APP-BP1/UBA3, UbcH12, NEDD8; Western readout), supported by CETSA of APP-BP1 in PC3 cells on NAE1 regulatory subunit APP-BP1 (NEDD8 activating enzyme, NAE) | The relative density of NEDD8-Ubc12 to the control was analyzed to have an estimated IC50 of approximately11μM

IC50: ~11 µM
SMILES: COc1cc(O)c(C(=O)/C=C/c2ccccc2)c(OC)c1 [FKB, Flavokawain B]
